This note sets out measurements from article PMC10196118, “Evidence for broad cross-reactivity of the SARS-CoV-2 NSP12-directed CD4^+ T-cell response with pre-primed responses directed against common cold coronaviruses” (Frontiers in Immunology, 2023).

Common to all, as to experiment: biochemical
Holding throughout (type): binding

The target in one experiment is HLA DRB1*15:01 (Homo sapiens, UniProt P01903+P01911). To be noted: binder threshold 1,000 nM, read-out: In vitro (IC50 nM) DRB1*15:01.
For the next experiment, the target named is HLA DRB1*04:05 (Homo sapiens, UniProt P01903+P01911, A100R/A169T/D86S/F76Y/I96L/K127E/L162R/M171V/N62H/P40V/Q125Y/R42H/S133A/S149N/S66Y/V115G/V209L/W38E). To be noted: binder threshold 1,000 nM, read-out: In vitro (IC50 nM) DRB1*04:05.
For another experiment, the target named is HLA DRB1*01:01 (Homo sapiens, UniProt P01903+P01911, A100R/D57E/F55L/F60I/F76Y/I96L/L162R/M171V/P40L/Q125E/R42F/V115G/Y59C). To be noted: binder threshold 1,000 nM, read-out: In vitro (IC50 nM) DRB1*01:01.
The target in another experiment is HLA DRB1*13:02 (Homo sapiens, UniProt P01903+P01911, A100E/A169T/K41T/L162R/M171V/P40S/Q125H/Q178H/Q39Y/Q99D/R42S/S66N/T262R/V115G/W38E/Y61H). The conditions noted are these: binder threshold 1,000 nM, read-out: In vitro (IC50 nM) DRB1*13:02.
A further experiment has as its target HLA DRB1*12:01 (Homo sapiens, UniProt P01903+P01911, A100R/A169T/D57E/D86V/F55L/H45Y/K41T/L162R/M171V/P40S/Q125H/Q178H/Q39Y/Q99D/R42G/S66L/T262R/V114A/V67L/W38E/Y59H/Y61H/Y89S). The conditions noted are these: binder threshold 1,000 nM, read-out: In vitro (IC50 nM) DRB1*12:01.
The target in the next experiment is HLA DRB1*04:01 (Homo sapiens, UniProt P01903+P01911, A100K/A169T/F76Y/I96L/K127E/L162R/M171V/N62H/P40V/Q125Y/R42H/S133A/S149N/S66Y/V115G/V209L/W38E). To be noted: binder threshold 1,000 nM, read-out: In vitro (IC50 nM) DRB1*04:01.
The next experiment addresses HLA DRB1*07:01 (Homo sapiens, UniProt P01903+P01911, A100R/A102G/A103Q/D57E/D86V/E43K/F76Y/K127E/L162R/M171V/P40G/Q125H/Q99D/R33Q/R42Y/R54Q/S133A/S66F/T210M/V115G/Y107V/Y59L/Y89S). The conditions noted are these: binder threshold 1,000 nM, read-out: In vitro (IC50 nM) DRB1*07:01.
The target of another experiment is HLA DRB1*11:01 (Homo sapiens, UniProt P01903+P01911, A100R/A169T/A87E/I96F/K41T/L162R/M171V/P40S/Q125H/Q178H/Q39Y/Q99D/R42S/S66Y/T262R/V115G/W38E). The conditions noted are these: binder threshold 1,000 nM, read-out: In vitro (IC50 nM) DRB1*11:01.
The target in the next experiment is HLA DRB1*08:02 (Homo sapiens, UniProt P01903+P01911, A100R/A103L/A169T/F76Y/H45Y/I96F/K41T/L162R/M171V/P40S/Q125H/Q178H/Q39Y/Q99D/R218S/R42G/S66Y/V115G/W38E). The conditions noted are these: binder threshold 1,000 nM, read-out: In vitro (IC50 nM) DRB1*08:02.
For the next experiment, the target named is HLA DRB1*09:01 (Homo sapiens, UniProt P01903+P01911, A100R/A103E/D57H/D86V/F55Y/F60I/F76Y/I96F/K127E/L162R/M171V/P40D/Q125H/Q99R/R33Q/R42F/S133A/S66N/T210M/V115G/W38K/Y107V/Y59G/Y89S). To be noted: binder threshold 1,000 nM, read-out: In vitro (IC50 nM) DRB1*09:01.
Another experiment addresses HLA DRB1*03:01 (Homo sapiens, UniProt P01903+P01911, A100K/A102G/A103R/A169T/F55Y/I96L/K41T/L162R/M171V/P40S/Q125H/Q178H/Q39Y/R42S/S66N/T106N/T262R/W38E/Y61H). The conditions noted are these: binder threshold 1,000 nM, read-out: In vitro (IC50 nM) DRB1*03:01.

Each structure is given as a SMILES string.

HLA DRB1*11:01, sequence (P01903 26-254, other chains not shown): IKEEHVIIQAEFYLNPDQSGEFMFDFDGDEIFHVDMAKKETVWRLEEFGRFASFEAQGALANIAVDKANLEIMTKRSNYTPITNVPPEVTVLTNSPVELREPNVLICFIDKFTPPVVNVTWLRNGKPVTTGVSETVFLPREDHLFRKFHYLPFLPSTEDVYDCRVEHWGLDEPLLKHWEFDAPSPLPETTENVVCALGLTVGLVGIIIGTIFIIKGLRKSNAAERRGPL
HLA DRB1*03:01, sequence (P01903 26-254, other chains not shown): as above
HLA DRB1*13:02, sequence (P01903 26-254 limits assumed, other chains not shown): as the sequence (P01903 26-254, other chains not shown) above

The IC50 is the concentration that inhibits the measured activity by half. Take `CSCC[C@H](NC(=O)[C@@H](NC(=O)[C@@H]1CCCN1C(=O)[C@H](CC(C)C)NC(=O)[C@H](CC(N)=O)NC(=O)[C@H](Cc1ccc(O)cc1)NC(=O)[C@H](CCCNC(=N)N)NC(=O)[C@H](Cc1ccc(O)cc1)NC(=O)[C@H](Cc1ccc(O)cc1)NC(=O)[C@H](CC(=O)O)NC(=O)[C@H](Cc1ccc(O)cc1)NC(=O)[C@H](CC(=O)O)NC(=O)[C@@H](N)CO)[C@@H](C)O)C(=O)N[C@@H](CS)C(=O)N[C@@H](CC(=O)O)C(=O)O` [Peptide 91]: the concentration for half-maximal inhibition (IC50) at HLA DRB1*15:01 stood at 1480 nM; at HLA DRB1*04:05, 3280 nM; on HLA DRB1*01:01 it was 6670 nM; on HLA DRB1*13:02, 13600 nM; on HLA DRB1*12:01, 29600 nM; on HLA DRB1*04:01 it was 830 nM. Besides, the IC50 stood at 549 nM at HLA DRB1*07:01, 18200 nM on HLA DRB1*11:01, 3510 nM at HLA DRB1*08:02 and 1430 nM at HLA DRB1*09:01.

With `CC[C@H](C)[C@H](NC(=O)[C@@H]1CCCN1C(=O)[C@H](CCSC)NC(=O)[C@@H](N)CC(C)C)C(=O)N[C@@H](CC(C)C)C(=O)N[C@H](C(=O)N[C@@H](CC(C)C)C(=O)N[C@H](C(=O)N[C@@H](CCCNC(=N)N)C(=O)N[C@@H](C)C(=O)N[C@@H](CC(C)C)C(=O)N[C@H](C(=O)N[C@@H](C)C(=O)N[C@@H](CCC(=O)O)C(=O)N[C@@H](CO)C(=O)O)[C@@H](C)O)[C@@H](C)O)[C@@H](C)O` [NSP12_49], the IC50 at HLA DRB1*15:01 came to 37 nM; on HLA DRB1*04:05 it was 367 nM; on HLA DRB1*03:01 it was 12100 nM; at HLA DRB1*01:01, 136 nM; at HLA DRB1*13:02, 409 nM; on HLA DRB1*12:01 it was 131 nM. The IC50 on HLA DRB1*04:01 stood at 20 nM; on HLA DRB1*07:01, 15 nM; at HLA DRB1*11:01, 37 nM; on HLA DRB1*08:02, 283 nM; on HLA DRB1*09:01, 123 nM.

Consider `CC(C)C[C@H](NC(=O)[C@H](C)NC(=O)[C@H](CCCNC(=N)N)NC(=O)[C@@H](NC(=O)[C@H](CC(C)C)NC(=O)[C@@H](N)[C@@H](C)O)[C@@H](C)O)C(=O)N[C@H](C(=O)N[C@@H](C)C(=O)N[C@@H](CCC(=O)O)C(=O)N[C@@H](CO)C(=O)N[C@@H](Cc1c[nH]cn1)C(=O)N[C@H](C(=O)N[C@@H](CC(=O)O)C(=O)N[C@H](C(=O)N[C@@H](CC(=O)O)C(=O)O)[C@@H](C)O)C(C)C)[C@@H](C)O` [NSP12_50], for which the IC50 was 1290 nM on HLA DRB1*15:01; 99 nM on HLA DRB1*04:05; 1640 nM at HLA DRB1*03:01; 2100 nM at HLA DRB1*01:01; 4490 nM at HLA DRB1*12:01; 4.1 nM at HLA DRB1*04:01. The IC50 at HLA DRB1*07:01 came to 14 nM; at HLA DRB1*11:01, 301 nM; at HLA DRB1*08:02, 501 nM; on HLA DRB1*09:01, 59 nM.

For `CC(C)C[C@H](NC(=O)[C@H](CCCNC(=N)N)NC(=O)[C@H](Cc1ccc(O)cc1)NC(=O)[C@H](Cc1ccccc1)NC(=O)[C@@H](N)CCCNC(=N)N)C(=O)N[C@@H](C)C(=O)N[C@@H](CC(N)=O)C(=O)N[C@@H](CCC(=O)O)C(=O)N[C@@H](CS)C(=O)N[C@@H](C)C(=O)N[C@@H](CCC(N)=O)C(=O)N[C@H](C(=O)N[C@@H](CC(C)C)C(=O)N[C@@H](CO)C(=O)N[C@@H](CCC(=O)O)C(=O)O)C(C)C` [NSP12_131], the IC50 turned out to be 611 nM on HLA DRB1*15:01; 270 nM on HLA DRB1*04:05; 8410 nM at HLA DRB1*03:01; 53 nM at HLA DRB1*01:01; 23800 nM on HLA DRB1*13:02; 6320 nM on HLA DRB1*12:01. The IC50 on HLA DRB1*04:01 stood at 27 nM; at HLA DRB1*07:01, 279 nM; on HLA DRB1*11:01, 367 nM; on HLA DRB1*08:02, 2350 nM; at HLA DRB1*09:01 it was 48 nM.

For the compound `CC[C@H](C)[C@H](NC(=O)[C@@H](NC(=O)[C@@H]1CCCN1C(=O)[C@@H](NC(=O)[C@@H](NC(=O)[C@H](CC(N)=O)NC(=O)[C@H](CCCNC(=N)N)NC(=O)[C@H](CCCCN)NC(=O)[C@@H](NC(=O)[C@H](Cc1ccc(O)cc1)NC(=O)[C@H](C)NC(=O)[C@H](Cc1ccccc1)NC(=O)[C@H](CC(C)C)NC(=O)[C@H](C)N)[C@@H](C)O)C(C)C)[C@@H](C)CC)[C@@H](C)O)C(=O)N[C@H](C(=O)O)[C@@H](C)O` [NSP12_106], the IC50 at HLA DRB1*15:01 amounted to 770 nM; on HLA DRB1*04:05, 13000 nM; on HLA DRB1*03:01, 709 nM; at HLA DRB1*01:01, 7360 nM; on HLA DRB1*13:02, 32 nM; on HLA DRB1*12:01, 756 nM. The IC50 at HLA DRB1*04:01 was 3660 nM; on HLA DRB1*07:01, 1.6 nM; on HLA DRB1*11:01, 6.6 nM; on HLA DRB1*08:02 it was 190 nM; at HLA DRB1*09:01, 52 nM.

For the compound `CC[C@H](C)[C@H](NC(=O)[C@H](CCSC)NC(=O)[C@H](CCSC)NC(=O)[C@H](CO)NC(=O)[C@H](Cc1ccccc1)NC(=O)[C@H](Cc1c[nH]cn1)NC(=O)[C@H](CCCCN)NC(=O)[C@H](CCCNC(=N)N)NC(=O)[C@H](CC(C)C)NC(=O)[C@H](Cc1ccc(O)cc1)NC(=O)[C@H](C)NC(=O)[C@@H](N)Cc1ccc(O)cc1)C(=O)N[C@@H](CC(C)C)C(=O)N[C@@H](CO)C(=O)N[C@@H](CC(=O)O)C(=O)O` [Peptide 150], the IC50 on HLA DRB1*15:01 was 0.23 nM; on HLA DRB1*04:05, 318 nM; at HLA DRB1*03:01, 5020 nM; at HLA DRB1*01:01 it was 495 nM; at HLA DRB1*13:02 it was 755 nM; at HLA DRB1*12:01 it was 96 nM. For the same compound, the 50% inhibitory concentration (IC50) at HLA DRB1*04:01 worked out at 102 nM; at HLA DRB1*07:01 it was 0.73 nM; on HLA DRB1*11:01, 7.9 nM; on HLA DRB1*08:02, 138 nM; on HLA DRB1*09:01, 4.8 nM.

Consider `CC(C)C[C@H](NC(=O)[C@H](CCCNC(=N)N)NC(=O)[C@H](Cc1ccc(O)cc1)NC(=O)[C@H](Cc1ccccc1)NC(=O)[C@H](CCCNC(=N)N)NC(=O)[C@H](Cc1c[nH]cn1)NC(=O)[C@H](CO)NC(=O)[C@H](CC(C)C)NC(=O)[C@H](CO)NC(=O)[C@H](CS)NC(=O)[C@H](CS)NC(=O)[C@@H](NC(=O)[C@@H](NC(=O)[C@H](Cc1c[nH]cn1)NC(=O)[C@@H](N)CCCCN)[C@@H](C)O)[C@@H](C)O)C(=O)O` [NSP12_129], for which the IC50 at HLA DRB1*15:01 was 447 nM; at HLA DRB1*04:05, 644 nM; at HLA DRB1*03:01, 916 nM; at HLA DRB1*01:01, 279 nM; at HLA DRB1*13:02 it was 1170 nM; at HLA DRB1*12:01 it was 59 nM. Besides, the IC50 at HLA DRB1*04:01 is 613 nM; on HLA DRB1*07:01, 56 nM; on HLA DRB1*11:01, 235 nM; on HLA DRB1*08:02, 1010 nM; at HLA DRB1*09:01, 286 nM.
